Experimental data: PubChem BioAssay (NCI)
Several values for one entry are separate records, joined by “and”; a condition that tells them apart may be missing. Identical values can stand only once.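 Dose response: 5 concentrations. Exposure: 48 h. Format: 96-well plates. Endpoint: linear interpolation; highest concentration if not reached. At the GI50, growth is halved. TGI is the concentration that stops growth completely.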

Legend:
Test in all cases: DTP human tumour cell line panel, 48 h
K-562 leukemia = system: K-562 leukemia
MALME-3M melanoma = system: MALME-3M melanoma
OVCAR-3 ovarian = system: OVCAR-3 ovarian
HS 578T breast = system: HS 578T breast
NCI-H226 lung = system: NCI-H226 lung
NCI-H23 lung = system: NCI-H23 lung
SR leukemia = system: SR leukemia
786-0 renal = system: 786-0 renal
SN12C renal = system: SN12C renal
HL-60(TB) leukemia = system: HL-60(TB) leukemia
MDA-MB-435 = system: MDA-MB-435
MOLT-4 leukemia = system: MOLT-4 leukemia
T-47D breast = system: T-47D breast
UACC-62 melanoma = system: UACC-62 melanoma
HCC-2998 colon = system: HCC-2998 colon
OVCAR-4 ovarian = system: OVCAR-4 ovarian
HOP-92 NSCLC = system: HOP-92 NSCLC
SF-539 CNS = system: SF-539 CNS
NCI/ADR-RES ovarian = system: NCI/ADR-RES ovarian
HT29 colon = system: HT29 colon
A498 renal = system: A498 renal
RPMI-8226 leukemia = system: RPMI-8226 leukemia
DU-145 prostate = system: DU-145 prostate
MCF7 breast = system: MCF7 breast
BT-549 breast = system: BT-549 breast
SNB-75 CNS = system: SNB-75 CNS
UACC-257 melanoma = system: UACC-257 melanoma
NCI-H522 lung = system: NCI-H522 lung
SF-295 CNS = system: SF-295 CNS
U251 CNS = system: U251 CNS
ACHN renal = system: ACHN renal
RXF 393 renal = system: RXF 393 renal
IGROV1 ovarian = system: IGROV1 ovarian
HCT-116 colon = system: HCT-116 colon
NCI-H460 lung = system: NCI-H460 lung
KM12 colon = system: KM12 colon
COLO 205 colon = system: COLO 205 colon
HOP-62 NSCLC = system: HOP-62 NSCLC
CAKI-1 renal = system: CAKI-1 renal
M14 melanoma = system: M14 melanoma
SK-OV-3 ovarian = system: SK-OV-3 ovarian
SK-MEL-2 melanoma = system: SK-MEL-2 melanoma
SF-268 CNS = system: SF-268 CNS
TK-10 renal = system: TK-10 renal
SK-MEL-5 melanoma = system: SK-MEL-5 melanoma
LOX IMVI melanoma = system: LOX IMVI melanoma
UO-31 renal = system: UO-31 renal
SW-620 colon = system: SW-620 colon
EKVX NSCLC = system: EKVX NSCLC
MDA-MB-231 breast = system: MDA-MB-231 breast
PC-3 prostate = system: PC-3 prostate
OVCAR-8 ovarian = system: OVCAR-8 ovarian
SNB-19 CNS = system: SNB-19 CNS
HCT-15 colon = system: HCT-15 colon
OVCAR-5 ovarian = system: OVCAR-5 ovarian
A549 NSCLC = system: A549 NSCLC
CCRF-CEM leukemia = system: CCRF-CEM leukemia
SK-MEL-28 melanoma = system: SK-MEL-28 melanoma

O=C(O)c1ccc2c(c1)nc(Nc1cccc(Cl)c1)c1ccncc12
GI50 (K-562 leukemia): 3.06 µM and 4.09 µM
TGI (K-562 leukemia): 15.7 µM and > 10 µM
GI50 (MALME-3M melanoma): 1.91 µM and 2.68 µM
TGI (MALME-3M melanoma): 7.71 µM and > 10 µM
GI50 (OVCAR-3 ovarian): 1.2 µM and 1.68 µM
TGI (OVCAR-3 ovarian): 4.15 µM and > 10 µM
GI50 (HS 578T breast): 0.435 µM and 1.17 µM
TGI (HS 578T breast): 3.88 µM and 6.21 µM
GI50 (NCI-H226 lung): 1.77 µM and 2.77 µM
TGI (NCI-H226 lung): > 20.3 µM
GI50 (NCI-H23 lung): 2.37 µM and 2.98 µM
TGI (NCI-H23 lung): 8.29 µM and > 10 µM
GI50 (SR leukemia): 2.04 µM and 2.63 µM
TGI (SR leukemia): 6.3 µM and 9.2 µM
GI50 (786-0 renal): 3.7 µM and 4.2 µM
TGI (786-0 renal): 18.6 µM and > 10 µM
GI50 (SN12C renal): 3.88 µM and 3.71 µM
TGI (SN12C renal): > 100 µM
GI50 (HL-60(TB) leukemia): 2.88 µM and 4.98 µM
TGI (HL-60(TB) leukemia): 7.67 µM and > 10 µM
GI50 (MDA-MB-435): 2.67 µM and 3.01 µM
TGI (MDA-MB-435): > 31.6 µM
GI50 (MOLT-4 leukemia): 3.07 µM and 4.6 µM
TGI (MOLT-4 leukemia): 7.4 µM and > 10 µM
GI50 (T-47D breast): 2.83 µM and 1.33 µM
TGI (T-47D breast): > 39.1 µM and 5.71 µM
GI50 (UACC-62 melanoma): 1.82 µM
TGI (UACC-62 melanoma): 6.16 µM
GI50 (HCC-2998 colon): 2.53 µM and 4.02 µM
TGI (HCC-2998 colon): 15.1 µM and > 10 µM
GI50 (OVCAR-4 ovarian): 2.09 µM and 4.08 µM
TGI (OVCAR-4 ovarian): 21.6 µM and > 10 µM
GI50 (HOP-92 NSCLC): 0.325 µM and 0.445 µM
TGI (HOP-92 NSCLC): 3.77 µM and 4.06 µM
GI50 (SF-539 CNS): 2.05 µM and 1.58 µM
TGI (SF-539 CNS): 8.45 µM and 6.12 µM
GI50 (NCI/ADR-RES ovarian): 3.17 µM and 3.73 µM
TGI (NCI/ADR-RES ovarian): > 80.1 µM
GI50 (HT29 colon): 5.48 µM and 6.26 µM
TGI (HT29 colon): 33.3 µM and > 10 µM
GI50 (A498 renal): 0.231 µM and 1.99 µM
TGI (A498 renal): 2.46 µM and 6.66 µM
GI50 (RPMI-8226 leukemia): 2.68 µM and 2.5 µM
TGI (RPMI-8226 leukemia): 8.86 µM and 9.44 µM
GI50 (DU-145 prostate): 4.92 µM and 6.02 µM
TGI (DU-145 prostate): 47.3 µM and > 10 µM
GI50 (MCF7 breast): 2.22 µM and 2.57 µM
TGI (MCF7 breast): > 100 µM
GI50 (BT-549 breast): 2.48 µM and 2.29 µM
TGI (BT-549 breast): 10.9 µM and 8.33 µM
GI50 (SNB-75 CNS): 1.44 µM and 1.67 µM
TGI (SNB-75 CNS): 6.33 µM and 7.53 µM
GI50 (UACC-257 melanoma): 3.88 µM and 2.68 µM
TGI (UACC-257 melanoma): 20.3 µM and > 10 µM
GI50 (NCI-H522 lung): 1.98 µM and 1.39 µM
TGI (NCI-H522 lung): 6.42 µM and 4.51 µM
GI50 (SF-295 CNS): 2.74 µM and 3.17 µM
TGI (SF-295 CNS): > 42.9 µM
GI50 (U251 CNS): 1.82 µM and 1.38 µM
GI50 (ACHN renal): 3.04 µM and 3.51 µM
TGI (ACHN renal): > 100 µM
GI50 (RXF 393 renal): 3.23 µM and 4.17 µM
TGI (RXF 393 renal): 13 µM and > 10 µM
GI50 (IGROV1 ovarian): 3.56 µM and 2.68 µM
GI50 (HCT-116 colon): 2.39 µM and 2.82 µM
TGI (HCT-116 colon): 8.69 µM and > 10 µM
GI50 (NCI-H460 lung): 3.48 µM and 4.32 µM
TGI (NCI-H460 lung): 25.1 µM and > 10 µM
GI50 (KM12 colon): 3.43 µM and 4.43 µM
TGI (KM12 colon): 18.1 µM and > 10 µM
GI50 (COLO 205 colon): 4.21 µM and 3.67 µM
TGI (COLO 205 colon): 15.1 µM and > 10 µM
GI50 (HOP-62 NSCLC): 3.3 µM and 3.38 µM
TGI (HOP-62 NSCLC): 25.5 µM and > 10 µM
GI50 (CAKI-1 renal): 1.31 µM and 1.96 µM
TGI (CAKI-1 renal): 5.73 µM and 7.22 µM
GI50 (M14 melanoma): 1.52 µM and 2.2 µM
TGI (M14 melanoma): 5.39 µM and 9.68 µM
GI50 (SK-OV-3 ovarian): 2.98 µM and 2.42 µM
TGI (SK-OV-3 ovarian): 11.6 µM and 7.52 µM
GI50 (SK-MEL-2 melanoma): 2.4 µM and 1.86 µM
TGI (SK-MEL-2 melanoma): 7.11 µM and 5.59 µM
GI50 (SF-268 CNS): 3.52 µM and 3.85 µM
TGI (SF-268 CNS): > 77.4 µM
GI50 (TK-10 renal): 3.67 µM and 2.13 µM
TGI (TK-10 renal): 25.2 µM and > 10 µM
GI50 (SK-MEL-5 melanoma): 1.86 µM and 2.08 µM
TGI (SK-MEL-5 melanoma): 4.76 µM and 5.38 µM
GI50 (LOX IMVI melanoma): 2.04 µM and 2.7 µM
TGI (LOX IMVI melanoma): 10.7 µM and > 10 µM
GI50 (UO-31 renal): 3.79 µM and 2.86 µM
TGI (UO-31 renal): 14 µM and > 10 µM
GI50 (SW-620 colon): 3.1 µM and 3.97 µM
TGI (SW-620 colon): 26.5 µM and > 10 µM
GI50 (EKVX NSCLC): 3.46 µM and 4.04 µM
TGI (EKVX NSCLC): 23.9 µM and > 10 µM
GI50 (MDA-MB-231 breast): 4.18 µM and 3.57 µM
TGI (MDA-MB-231 breast): 34.2 µM and > 10 µM
GI50 (PC-3 prostate): 2.88 µM and 3.57 µM
TGI (PC-3 prostate): 22 µM and > 10 µM
GI50 (OVCAR-8 ovarian): 4.1 µM and 3.3 µM
TGI (OVCAR-8 ovarian): > 75.4 µM
GI50 (SNB-19 CNS): 3.04 µM and 3.46 µM
TGI (SNB-19 CNS): > 100 µM
GI50 (HCT-15 colon): 3.12 µM and 2.92 µM
TGI (HCT-15 colon): 21.7 µM and > 10 µM
GI50 (OVCAR-5 ovarian): 3.2 µM and 4.53 µM
TGI (OVCAR-5 ovarian): 38.7 µM and > 10 µM
GI50 (A549 NSCLC): 7.23 µM and 6.64 µM
TGI (A549 NSCLC): 27.4 µM and > 10 µM
GI50 (CCRF-CEM leukemia): 2.25 µM and 1.85 µM
TGI (CCRF-CEM leukemia): 8.55 µM and 7.01 µM
GI50 (SK-MEL-28 melanoma): 3.12 µM and 3.2 µM
TGI (SK-MEL-28 melanoma): 21.9 µM and > 10 µM
